This is an account of results in patent publication US20230174460A1, “AFMT ANALOGS AND THEIR USE IN METHODS OF TREATING PARKINSON'S DISEASE” (President and Fellowes of Harvard College, priority 2020, published 2023).

In the test the test system is E. faecalis MMH594 whole cells (TyrDC). The test can be described thus: Inhibition of L-dopa decarboxylation in E. faecalis whole cells. Type of test: cell-based, Enterococcus faecalis MMH594. As to conditions: for EC50: E. faecalis whole cells / cultures. On the procedure:
Thus, a library of commercially available tyrosine and phenylalanine derivatives were evaluated for decarboxylation by Enterococcus faecalis MMH594 whole cells; decarboxylation efficiency of a given tyrosine analog was used to identify favorable aromatic fragments, with high conversion indicating a favorable arene scaffold. […] To quickly assess whether the trend in native decarboxylation activity can be translated to inhibitory activity, we evaluated benzyl aminooxy compounds with similar aromatic elements as inhibitors for L-dopa decarboxylation in E. faecalis MMH594 whole cells (10 μM inhibitor); high L-dopa recovery indicated high inhibitory efficiency. […] In addition, these compounds are either commercially available or can be accessed in a two-step synthetic sequence (European Journal of Medicinal Chemistry 2016, 108, 564-576). As shown, inhibitors without a para-hydroxyphenyl motif are not effective towards L-dopa decarboxylation in whole cells (FIG. 3B). Aminooxy compounds with this structural motif can inhibit L-dopa decarboxylation in E. faecalis cultures at low concentrations.
AFMT analogs were evaluated for their inhibitory effects towards L-dopa decarboxylation using the same protocol as described above. 500 μM L-dopa was incubated anaerobically at 37° C. with E. faecalis MMH594 in the presence of 100 μM inhibitor for 18-24 h. The level of remaining L-dopa was measured by MS/MS and then normalized to the level of L-dopa from a mutant control. […] Since (S)-AFMT is the active AFMT enantiomer, the stereochemical assignments in FIG. 5 assume that the enantiomer with the higher inhibitory activity carries the […] configuration. Chiral configuration will be unambiguously determined via crystallography in the future.

For `NOCc1ccc(O)cc1` [4-hydroxybenzyl aminooxy], the response was half-maximal at 1500 nM (EC50).

On to `C[C@@](Cc1ccc(O)c(O)c1)(NN)C(=O)O` [carbidopa], for which the “limiting L-dopa decarboxylation by E. faecalis” value (applicant's original study) is reported as “ineffective”.

`N[C@@](CF)(Cc1ccc(O)cc1)C(=O)O` [AFMT, α-fluoromethyltyrosine] returned an EC50 (Enterococcus faecalis) of 1400 nM.

Regarding `NOCc1ccc(O)c(F)c1` [3-fluoro-4-hydroxybenzyl aminooxy], it took 2200 nM to reach a half-maximal effect (EC50).

A word on the EC50: it is the concentration giving half of the maximal effect. A lower EC50 goes with greater potency.
